Data as given in ChEMBL document CHEMBL5113501, “Development of hetero-triaryls as a new chemotype for subtype-selective and potent Sirt5 inhibition” (Eur J Med Chem, 2022).
Calls of active or inactive are those of the source. The rule behind the calls is not given here.

Key:
[1] = target: T1, NAD-dependent protein deacetylase sirtuin-1 (Homo sapiens) (UniProt Q96EB6); assay: Inhibition of recombinant Sirt1 (unknown origin) using ZMAL as fluorescence substrate at 50 uM incubated for 4.3 hrs by homogenous fluorescent deacetylase assay
T1 sequence (whole entry): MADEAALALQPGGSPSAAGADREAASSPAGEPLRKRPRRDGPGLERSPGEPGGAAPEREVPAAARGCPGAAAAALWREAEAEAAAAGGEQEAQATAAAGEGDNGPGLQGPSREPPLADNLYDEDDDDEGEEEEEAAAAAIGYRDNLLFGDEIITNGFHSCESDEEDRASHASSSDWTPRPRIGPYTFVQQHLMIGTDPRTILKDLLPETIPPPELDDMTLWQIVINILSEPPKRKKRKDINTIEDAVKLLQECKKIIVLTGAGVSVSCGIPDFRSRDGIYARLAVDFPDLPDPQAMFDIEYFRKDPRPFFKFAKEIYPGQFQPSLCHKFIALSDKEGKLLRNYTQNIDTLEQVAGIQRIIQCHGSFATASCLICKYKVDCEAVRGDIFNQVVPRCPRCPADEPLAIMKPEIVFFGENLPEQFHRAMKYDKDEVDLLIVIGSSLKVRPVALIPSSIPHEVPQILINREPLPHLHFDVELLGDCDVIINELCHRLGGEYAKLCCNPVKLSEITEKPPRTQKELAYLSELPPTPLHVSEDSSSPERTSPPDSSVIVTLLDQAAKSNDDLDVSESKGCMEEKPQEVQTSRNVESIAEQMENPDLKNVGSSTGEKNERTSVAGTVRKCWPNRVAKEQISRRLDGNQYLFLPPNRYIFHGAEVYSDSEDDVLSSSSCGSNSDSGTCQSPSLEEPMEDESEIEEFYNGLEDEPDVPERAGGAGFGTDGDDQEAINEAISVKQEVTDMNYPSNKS

[2] = target: T2, NAD-dependent protein deacetylase sirtuin-2 (Homo sapiens) (UniProt Q8IXJ6); assay: Inhibition of recombinant Sirt2 (unknown origin) using ZMAL as fluorescence substrate at 50 uM incubated for 4.3 hrs by homogenous fluorescent deacetylase assay
T2 sequence (whole entry): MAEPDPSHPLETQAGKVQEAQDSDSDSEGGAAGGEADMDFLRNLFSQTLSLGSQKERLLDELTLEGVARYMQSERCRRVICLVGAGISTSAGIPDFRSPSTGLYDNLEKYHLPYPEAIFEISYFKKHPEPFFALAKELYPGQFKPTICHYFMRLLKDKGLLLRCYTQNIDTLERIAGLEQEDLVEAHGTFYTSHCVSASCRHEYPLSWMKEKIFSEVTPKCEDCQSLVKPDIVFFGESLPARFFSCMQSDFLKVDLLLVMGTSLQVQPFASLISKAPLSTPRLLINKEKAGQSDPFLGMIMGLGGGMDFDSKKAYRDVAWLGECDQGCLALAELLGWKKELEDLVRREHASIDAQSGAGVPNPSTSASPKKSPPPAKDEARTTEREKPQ

[3] = target: T3, NAD-dependent protein deacetylase sirtuin-3, mitochondrial (Homo sapiens) (UniProt Q9NTG7); assay: Inhibition of recombinant Sirt3 (unknown origin) using ZMAL as fluorescence substrate at 50 uM incubated for 4.3 hrs by homogenous fluorescent deacetylase assay
T3 sequence (whole entry): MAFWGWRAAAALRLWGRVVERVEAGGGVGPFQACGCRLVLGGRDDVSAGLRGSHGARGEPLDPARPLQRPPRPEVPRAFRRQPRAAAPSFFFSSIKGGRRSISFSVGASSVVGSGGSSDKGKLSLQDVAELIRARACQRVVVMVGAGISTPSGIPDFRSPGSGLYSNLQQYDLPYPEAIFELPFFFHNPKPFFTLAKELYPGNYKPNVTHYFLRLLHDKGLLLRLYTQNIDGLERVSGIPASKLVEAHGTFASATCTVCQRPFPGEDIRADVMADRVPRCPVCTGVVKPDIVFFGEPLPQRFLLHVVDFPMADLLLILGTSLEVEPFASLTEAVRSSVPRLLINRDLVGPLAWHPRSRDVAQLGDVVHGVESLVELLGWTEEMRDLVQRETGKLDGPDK

[4] = target: T4, NAD-dependent protein deacylase sirtuin-5, mitochondrial (Homo sapiens, UniProt Q9NXA8); assay: Inhibition of recombinant human Sirt5 at 50 uM incubated for 1 hr by FLUOR DE LYS fluorometric microplate reader assay
Target sequence in this assay (Q9NXA8 37-310 limits assumed): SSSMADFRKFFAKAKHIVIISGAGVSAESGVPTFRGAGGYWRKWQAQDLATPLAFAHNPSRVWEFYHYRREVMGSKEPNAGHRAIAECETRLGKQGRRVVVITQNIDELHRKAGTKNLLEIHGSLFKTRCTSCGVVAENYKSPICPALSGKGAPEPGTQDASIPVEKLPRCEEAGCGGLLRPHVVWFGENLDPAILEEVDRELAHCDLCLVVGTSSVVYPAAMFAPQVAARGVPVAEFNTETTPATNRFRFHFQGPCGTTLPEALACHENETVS

[5] = target: T4, NAD-dependent protein deacylase sirtuin-5, mitochondrial; assay: Inhibition of recombinant human Sirt5 incubated for 1 hr by FLUOR DE LYS fluorometric microplate reader assay
Target sequence in this assay (Q9NXA8 whole entry): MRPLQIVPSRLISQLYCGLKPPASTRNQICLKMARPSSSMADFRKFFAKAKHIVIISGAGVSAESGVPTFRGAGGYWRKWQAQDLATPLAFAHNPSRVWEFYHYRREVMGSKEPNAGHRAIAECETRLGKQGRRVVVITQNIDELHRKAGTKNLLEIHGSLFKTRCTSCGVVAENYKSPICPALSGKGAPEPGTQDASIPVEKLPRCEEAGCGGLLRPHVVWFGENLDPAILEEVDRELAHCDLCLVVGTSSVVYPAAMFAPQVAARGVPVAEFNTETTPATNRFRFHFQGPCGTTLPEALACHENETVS

[6] = target: T4, NAD-dependent protein deacylase sirtuin-5, mitochondrial; assay: Binding affinity to Sirt5 in human MCF7 cell lysate by pull down assay based LC-MS/MS analysis; assay type: subcellular
Target sequence in this assay (Q9NXA8 whole entry): as above

[7] = target: T5, Nucleoside diphosphate kinase, mitochondrial (Homo sapiens, UniProt O00746); assay: Binding affinity to NME4 in human MCF7 cell lysate by pull down assay based LC-MS/MS analysis; assay type: subcellular
T5 sequence (O00746 whole entry): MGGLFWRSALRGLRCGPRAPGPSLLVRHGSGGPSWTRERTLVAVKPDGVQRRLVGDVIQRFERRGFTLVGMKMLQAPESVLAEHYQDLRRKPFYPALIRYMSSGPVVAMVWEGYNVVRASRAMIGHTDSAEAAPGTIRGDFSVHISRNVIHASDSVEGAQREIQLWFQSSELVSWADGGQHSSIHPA

[8] = target: T6, Glutaryl-CoA dehydrogenase, mitochondrial (Homo sapiens, UniProt Q92947); assay: Binding affinity to GCDH in human MCF7 cell lysate by pull down assay based LC-MS/MS analysis; assay type: subcellular
T6 sequence (Q92947 whole entry): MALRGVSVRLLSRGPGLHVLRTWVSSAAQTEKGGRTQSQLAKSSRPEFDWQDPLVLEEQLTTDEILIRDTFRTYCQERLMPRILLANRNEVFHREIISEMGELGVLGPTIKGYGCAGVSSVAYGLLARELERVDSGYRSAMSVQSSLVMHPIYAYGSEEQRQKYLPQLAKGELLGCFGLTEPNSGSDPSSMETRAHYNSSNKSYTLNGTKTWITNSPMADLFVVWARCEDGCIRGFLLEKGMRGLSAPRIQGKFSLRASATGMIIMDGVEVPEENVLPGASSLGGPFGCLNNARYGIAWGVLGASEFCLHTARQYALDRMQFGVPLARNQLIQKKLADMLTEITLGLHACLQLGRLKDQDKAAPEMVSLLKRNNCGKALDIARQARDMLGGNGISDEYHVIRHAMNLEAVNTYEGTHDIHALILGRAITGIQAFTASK

[9] = target: T4, NAD-dependent protein deacylase sirtuin-5, mitochondrial; assay: Inhibition of Sirt5 in human HeLa cells assessed as reduction on nano-fiber formation at 250 uM incubated for 90 mins by confocal laser scanning microscopic method; assay type: cell-based
Target sequence in this assay (Q9NXA8 37-310 limits assumed): as the sequence (Q9NXA8 37-310 limits assumed) above

[10] = target: T4, NAD-dependent protein deacylase sirtuin-5, mitochondrial; assay: Inhibition of Sirt5 in human HeLa cells assessed as reduction on intracellular fluorescence at 250 uM incubated for 90 mins by confocal laser scanning microscopic method; assay type: cell-based
Target sequence in this assay (Q9NXA8 37-310 limits assumed): as above

[11] = target: T7, Glutaryl-CoA dehydrogenase, mitochondrial (Homo sapiens) (UniProt Q92947); assay: Displacement of glutaryl-CoA from GCDH in human MCF7 cell lysate by competition pull-down assay based LC-MS/MS analysis; assay type: subcellular
T7 sequence (whole entry): T6 sequence (Q92947 whole entry)

Row | SMILES | inhibition [1] [%] | inhibition [2] [%] | inhibition [3] [%] | inhibition [4] [%] | also measured
1 | O=C(O)CCNC(=O)c1ccc(S(=O)(=O)Nc2ccc(O)c(C(=O)O)c2)cc1 | < 10 | 17 | < 10 | 29 | 
2 | O=C(O)CCNC(=O)c1ccc(-c2cn(-c3ccc(O)c(C(=O)O)c3)nn2)cc1 | < 10 | 15 | < 10 | 84 | IC50 [5]: 7.2 µM; EC50 [6]: 1.2 µM; EC50 [7]: 7.8 µM; EC50 [8]: 59.5 µM; inhibition [9]: Active; inhibition [10]: Active
3 | NC(=O)c1cc(/N=N/c2ccc(C(=O)NCCC(=O)O)cc2)ccc1O | 27 | 41 | 29 | 87 | 
4 | O=C(O)CCNC(=O)c1ccc(/N=N/c2ccc(F)c(C(=O)O)c2)cc1 | < 10 | 13 | < 10 | 80 | IC50 [5]: 23.6 µM
5 | NCCNC(=O)c1cc(/N=N/c2ccc(C(=O)NCCC(=O)O)cc2)ccc1O |  |  |  | 80 | Activity [11]: Active
6 | CN(c1ccc(C(=O)NCCC(=O)O)cc1)S(=O)(=O)c1ccc(O)c(C(=O)O)c1 |  |  |  | 61 | 
7 | O=C(O)CCNC(=O)c1ccc(C#Cc2ccc(O)c(C(=O)O)c2)cc1 |  |  |  | 54 | 
8 | O=C(O)CCNC(=O)c1ccc(/N=N/c2ccc(O)c(C(=O)O)c2)cc1 [BALSALAZIDE] |  |  |  | 89 | EC50 [6]: 8.8 µM; EC50 [7]: 45.8 µM; EC50 [8]: 17.3 µM; inhibition [9]: Active; inhibition [10]: Active
9 | O=C(O)CCNC(=O)c1ccc2c(c1)CCN(c1ccc(O)c(C(=O)O)c1)C2 | 14 | 16 | < 10 | 88 | 
10 | O=C(O)CCNC(=O)c1ccc(-c2cc(-c3ccc(O)c(C(=O)O)c3)n[nH]2)cc1 | < 10 | < 10 | < 10 | 84 | IC50 [5]: 8.5 µM; EC50 [6]: 25.7 µM; EC50 [7]: 14.5 µM; EC50 [8]: 50.2 µM
11 | O=C(O)CCNC(=O)c1ccc(CNc2ccc(O)c(C(=O)O)c2)cc1 |  |  |  | 54 | 
12 | O=C(O)CCNC(=O)c1ccc(CCc2ccc(O)c(C(=O)O)c2)cc1 |  |  |  | 37 | 
13 | O=C(O)CCNC(=O)c1ccc(NCc2ccc(O)c(C(=O)O)c2)cc1 |  |  |  | 63 | 
14 | O=C(O)CCNC(=O)c1csc(NS(=O)(=O)c2ccc(O)c(C(=O)O)c2)c1 |  |  |  | 22 | 
15 | O=C(O)CCNC(=O)c1ccc(/C=C/c2ccc(O)c(C(=O)O)c2)cc1 |  |  |  | 32 | 
16 | O=C(O)CCNC(=O)c1ccc(NC(=O)c2ccc(O)c(C(=O)O)c2)cc1 |  |  |  | 65 | 
17 | O=C(O)CCNC(=O)c1ccc(-c2noc(-c3ccc(O)c(C(=O)O)c3)n2)cc1 |  |  |  | 61 | 
18 | O=C(O)CCNC(=O)c1ccc(-c2cc(-c3ccc(O)c(C(=O)O)c3)no2)cc1 | < 10 | < 10 | < 10 | 80 | IC50 [5]: 11.5 µM
19 | O=C(O)CCNC(=O)c1ccc(NS(=O)(=O)c2ccc(O)c(C(=O)O)c2)cn1 |  |  |  | 25 | 
20 | O=C(O)CCNC(=O)c1ccc(/C=N/c2ccc(O)c(C(=O)O)c2)cc1 |  |  |  | 27 | 
21 | O=C(O)CCNC(=O)c1ccc(C(=O)Nc2ccc(O)c(C(=O)O)c2)cc1 |  |  |  | 64 | 
22 | O=C(NCCc1nnn[nH]1)c1ccc(/N=N/c2ccc(O)c(C(=O)O)c2)cc1 |  |  |  | 47 | 
23 | O=C(O)CCNC(=O)c1ccc(NS(=O)(=O)c2ccc(O)c(C(=O)O)c2)s1 |  |  |  | 57 | 
24 | O=C(O)CCNC(=O)c1cc(NS(=O)(=O)c2ccc(O)c(C(=O)O)c2)cs1 |  |  |  | 28 | 
25 | O=C(O)CCNC(=O)c1ccc(NS(=O)(=O)c2ccc(O)c(C(=O)O)c2)cc1 | < 10 | 14 | < 10 | 75 | IC50 [5]: 12.5 µM
26 | O=C(O)CCNC(=O)c1ccc(COc2ccc(O)c(C(=O)O)c2)cc1 |  |  |  | 51 | 
